These are literature values, as cited in patent publication US20120061267A1, “MediTowel Anti-Fungal Wipe” (priority 2010, published 2012).

Series [1] deals with Trichophyton mentagrophytes. To be noted: at a low concentration.
A further series concerns squalene epoxidase. Particulars: in the cells of fungi.

Counter-ions that a name gives are not always drawn.

With `CN(C/C=C/C#CC(C)(C)C)Cc1cccc2ccccc12` [Terbinafine hydrochloride], in series [1], the “fungicidal effect on sterilizing germinated conidium” value is “fungicidal effect”. In addition, in the series on squalene epoxidase, the “inhibition of squalene epoxidase” value is “selectively inhibits”.
